Data reported in patent US12692261B2, “Substituted heterocyclic compounds and therapeutic uses thereof” (Bayer Aktiengesellschaft, priority 2020, dated 2026).

Experiments:
full-length human CSNK1D = molecular target: T1, full-length human CSNK1D (Homo sapiens, UniProt P48730); assay: CSNK1D Assay (ADP-Glo, 1 μM ATP); assay type: biochemical; details: Table 3, read-out: CSNK1D IC50 [mol/l] (median)
T1 construct: N-terminal Glutathion-S-Transferase (GST) and full-length human CSNK1D; purchased Life Technologies PV3665; host or cells: baculovirus infected insect cells
Method in brief: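 Enzyme is N-terminal GST-tagged full-length human CSNK1D from baculovirus-infected insect cells (typically about 0.5 ng/μL), with a biotinylated peptide substrate and 1 μM ATP. Compound pre-incubated 15 min at 22° C in HEPES pH 7.5 buffer; ADP formed is read by ADP-Glo luminescence.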

[1] = molecular target: T2, full-length human CSNK1A1 (Homo sapiens, UniProt P48729); assay: CSNK1A1 Assay 2 (ADP-Glo, 1 μM ATP, substrate biotin-Ahx-KRRRAL-pS-VASLPGL); assay type: biochemical; details: Table 3, read-out: CSNK1A1 Assay 2 IC50 [mol/l] (median)
T2 construct: N-terminal Glutathion-S-Transferase (GST) and full-length human CSNK1A1; purchased Life Technologies PV4174; host or cells: baculovirus infected insect cells
Method in brief: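 GST-tagged full-length human CSNK1A1 from baculovirus-infected insect cells (about 0.0375 ng/μL), preincubated 15 min at 22 °C with compound in HEPES pH 7.5 buffer, with 1 μM ATP and biotin-Ahx-KRRRAL-pS-VASLPGL substrate. ADP formed read by ADP-Glo luminescence.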

T1 sequence (P48730 whole entry): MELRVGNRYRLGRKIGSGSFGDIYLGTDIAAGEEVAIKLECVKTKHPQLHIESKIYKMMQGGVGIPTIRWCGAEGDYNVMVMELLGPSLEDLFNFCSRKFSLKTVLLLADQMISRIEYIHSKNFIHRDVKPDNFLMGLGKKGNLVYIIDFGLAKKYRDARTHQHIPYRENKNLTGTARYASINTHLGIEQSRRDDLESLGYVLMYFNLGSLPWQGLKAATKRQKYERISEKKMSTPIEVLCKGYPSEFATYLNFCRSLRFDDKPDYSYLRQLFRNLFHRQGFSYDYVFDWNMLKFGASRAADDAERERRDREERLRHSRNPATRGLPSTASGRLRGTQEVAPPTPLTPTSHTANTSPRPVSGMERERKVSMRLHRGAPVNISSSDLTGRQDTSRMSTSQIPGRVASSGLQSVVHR
T2 sequence (P48729 whole entry): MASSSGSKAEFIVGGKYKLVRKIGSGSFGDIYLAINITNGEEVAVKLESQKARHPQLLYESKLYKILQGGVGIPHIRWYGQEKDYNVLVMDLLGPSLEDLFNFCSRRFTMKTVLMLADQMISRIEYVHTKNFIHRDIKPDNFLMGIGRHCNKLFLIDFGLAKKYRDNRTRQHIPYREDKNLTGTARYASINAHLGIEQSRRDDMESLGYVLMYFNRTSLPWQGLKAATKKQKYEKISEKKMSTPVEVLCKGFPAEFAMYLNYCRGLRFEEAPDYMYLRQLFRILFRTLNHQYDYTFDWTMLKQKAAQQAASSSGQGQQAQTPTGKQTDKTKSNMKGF

## O=C(Nc1cc(-c2[nH]c3cccnc3c2-c2cccc(F)n2)ccn1)C(CC(F)F)c1ccc(F)cc1 (single isomer, unassigned; (+)) [Example 27, (+)-4,4-difluoro-2-(4-fluorophenyl)-N-{4-[3-(6-fluoropyridin-2-yl)-1H-pyrrolo[3,2-b]pyridin-2-yl]pyridin-2-yl}butanamide]
full-length human CSNK1D
  IC50: 4.05 nM
[1]
  IC50: 1.55 nM

## COc1cc(F)nc2c(-c3ccccn3)c(-c3ccnc(NC(=O)C(CC(F)F)c4ccc(F)cc4)c3)[nH]c12 (single isomer, unassigned; (+)) [Example 40, (+)-4,4-difluoro-N-{4-[5-fluoro-7-methoxy-3-(pyridin-2-yl)-1H-pyrrolo[3,2-b]pyridin-2-yl]pyridin-2-yl}-2-(4-fluorophenyl)butanamide]
full-length human CSNK1D
  IC50: 5.57 nM
[1]
  IC50: 3.69 nM

## O=C(Nc1cc(-c2[nH]c3ccc(F)nc3c2-c2ccc(F)cn2)ccn1)C(CC(F)F)c1ccc(F)cc1 (single isomer, unassigned; (+)) [Example 109, (+)-4,4-difluoro-N-{4-[5-fluoro-3-(5-fluoropyridin-2-yl)-1H-pyrrolo[3,2-b]pyridin-2-yl]pyridin-2-yl}-2-(4-fluorophenyl)butanamide]
full-length human CSNK1D
  IC50: 3.41 nM
[1]
  IC50: 3.14 nM

## O=C(Nc1cc(-c2[nH]c3cccnc3c2-c2ccccn2)ccn1)C(CC(F)F)c1ccc(F)cc1 (single isomer, unassigned; (-)) [Example 12, (−)-4,4-difluoro-2-(4-fluorophenyl)-N-{4-[3-(pyridin-2-yl)-1H-pyrrolo[3,2-b]pyridin-2-yl]pyridin-2-yl}butanamide]
full-length human CSNK1D
  IC50: 12.4 nM
[1]
  IC50: 4.45 nM

## O=C(Nc1cc(-c2[nH]c3cncnc3c2-c2ccccn2)ccn1)C(CC(F)F)c1ccc(F)cc1 (single isomer, unassigned; (-)) [Example 14, (−)-4,4-difluoro-2-(4-fluorophenyl)-N-{4-[7-(pyridin-2-yl)-5H-pyrrolo[3,2-d]pyrimidin-6-yl]pyridin-2-yl}butanamide]
full-length human CSNK1D
  IC50: 28.5 nM
[1]
  IC50: 16.4 nM

## O=C(Nc1cc(-c2[nH]c3cc(F)cnc3c2-c2ccccn2)ccn1)C(CC(F)F)c1ccc(F)cc1 (single isomer, unassigned; (-)) [Example 18, (−)-4,4-difluoro-2-(4-fluorophenyl)-N-{4-[6-fluoro-3-(pyridin-2-yl)-1H-pyrrolo[3,2-b]pyridin-2-yl]pyridin-2-yl}butanamide]
full-length human CSNK1D
  IC50: 25.4 nM
[1]
  IC50: 16.2 nM

## O=C(Nc1cc(-c2[nH]c3cc(F)cnc3c2-c2ccccc2)ccn1)C(CC(F)F)c1ccc(F)cc1 (single isomer, unassigned; (-)) [Example 20, (−)-4,4-difluoro-2-(4-fluorophenyl)-N-[4-(6-fluoro-3-phenyl-1H-pyrrolo[3,2-b]pyridin-2-yl)pyridin-2-yl]butanamide]
full-length human CSNK1D
  IC50: 47.8 nM
[1]
  IC50: 132 nM

## O=C(Nc1cc(-c2[nH]c3cccnc3c2-c2ccccc2)ccn1)C(CC(F)F)c1ccc(F)cc1 (single isomer, unassigned; (-)) [Example 23, (−)-4,4-difluoro-2-(4-fluorophenyl)-N-[4-(3-phenyl-1H-pyrrolo[3,2-b]pyridin-2-yl)pyridin-2-yl]butanamide]
full-length human CSNK1D
  IC50: 12.5 nM
[1]
  IC50: 33.6 nM

## O=C(Nc1cc(-c2[nH]c3cccnc3c2-c2cccc(F)n2)ccn1)C(CC(F)F)c1ccc(F)cc1 (single isomer, unassigned; (-)) [Example 26, (−)-4,4-difluoro-2-(4-fluorophenyl)-N-{4-[3-(6-fluoropyridin-2-yl)-1H-pyrrolo[3,2-b]pyridin-2-yl]pyridin-2-yl}butanamide]
full-length human CSNK1D
  IC50: 50.7 nM
[1]
  IC50: 15.8 nM

## Cc1cc(F)nc2c(-c3ccccn3)c(-c3ccnc(NC(=O)C(CC(F)F)c4ccc(F)cc4)c3)[nH]c12 (single isomer, unassigned; (-)) [Example 38, (−)-4,4-difluoro-N-{4-[5-fluoro-7-methyl-3-(pyridin-2-yl)-1H-pyrrolo[3,2-b]pyridin-2-yl]pyridin-2-yl}-2-(4-fluorophenyl)butanamide]
full-length human CSNK1D
  IC50: 3.8 nM
[1]
  IC50: 2.26 nM

## COc1cc(F)nc2c(-c3ccccn3)c(-c3ccnc(NC(=O)C(CC(F)F)c4ccc(F)cc4)c3)[nH]c12 (single isomer, unassigned; (-)) [Example 41, (−)-4,4-difluoro-N-{4-[5-fluoro-7-methoxy-3-(pyridin-2-yl)-1H-pyrrolo[3,2-b]pyridin-2-yl]pyridin-2-yl}-2-(4-fluorophenyl)butanamide]
full-length human CSNK1D
  IC50: 4.13 nM
[1]
  IC50: 3.37 nM

## O=C(Nc1cc(-c2[nH]c3ccc(F)nc3c2-c2ccc(F)cn2)ccn1)C(CC(F)F)c1ccc(F)cc1 (single isomer, unassigned; (-)) [Example 110, (−)-4,4-difluoro-N-{4-[5-fluoro-3-(5-fluoropyridin-2-yl)-1H-pyrrolo[3,2-b]pyridin-2-yl]pyridin-2-yl}-2-(4-fluorophenyl)butanamide]
full-length human CSNK1D
  IC50: 43 nM
[1]
  IC50: 47.6 nM

## O=C(Nc1cc(-c2[nH]c3c(OC4CC4)cc(F)nc3c2-c2ccccn2)ccn1)C(CC(F)F)c1ccc(F)cc1 (stereo not shown) [Example 45]
full-length human CSNK1D
  IC50: 40.4 nM
[1]
  IC50: 22.3 nM

## COc1cnc2c(-c3ccccn3)c(-c3ccnc(NC(=O)C(CC(F)F)c4ccc(F)cc4)c3)[nH]c2n1 (stereo not shown) [Example 101, 4,4-difluoro-2-(4-fluorophenyl)-N-{4-[3-methoxy-7-(pyridin-2-yl)-5H-pyrrolo[2,3-b]pyrazin-6-yl]pyridin-2-yl}butanamide]
full-length human CSNK1D
  IC50: 9.17 nM
[1]
  IC50: 4.82 nM

## O=C(Nc1cc(-c2[nH]c3cccnc3c2-c2ccccn2)ccn1)C(CCO)c1ccc(F)cc1 (stereo not shown) [Example 104, 2-(4-fluorophenyl)-4-hydroxy-N-(4-(3-(pyridin-2-yl)-1H-pyrrolo[3,2-b]pyridin-2-yl)pyridin-2-yl)-butanamide]
full-length human CSNK1D
  IC50: 16.3 nM
[1]
  IC50: 6.29 nM

## O=C(Nc1cc(-c2[nH]c3nc(OC(F)F)cnc3c2-c2ccccn2)ccn1)C(CC(F)F)c1ccc(F)cc1 (stereo not shown) [Example 105, N-{4-[3-(difluoromethoxy)-7-(pyridin-2-yl)-5H-pyrrolo[2,3-b]pyrazin-6-yl]pyridin-2-yl}-4,4-difluoro-2-(4-fluorophenyl)butanamide]
full-length human CSNK1D
  IC50: 12.3 nM
[1]
  IC50: 10.9 nM

## COc1ncnc2c(-c3ccccn3)c(-c3ccnc(NC(=O)C(CC(F)F)c4ccc(F)cc4)c3)[nH]c12 (stereo not shown) [Example 113, 4,4-difluoro-2-(4-fluorophenyl)-N-{4-[4-methoxy-7-(pyridin-2-yl)-5H-pyrrolo[3,2-d]pyrimidin-6-yl]pyridin-2-yl}butanamide]
full-length human CSNK1D
  IC50: 9.2 nM
[1]
  IC50: 3.74 nM
